In publication PMC11074326, “A Toxoplasma gondii O-glycosyltransferase that modulates bradyzoite cyst wall rigidity is distinct from host homologues” (Nature Communications, 2024) one finds X-ray crystal structure data, which are given here for one molecule.

This assay addresses T1, TxgGalNAc-T3 (Toxoplasma gondii, UniProt A0A125YMZ8).
T1 construct: gene TGME49_318730; luminal region (catalytic and lectin domains), aa 74-635; secreted from Pichia pastoris SMD1168; His tag removed with TEV protease
The assay is described as follows: X-ray crystal structure. Type of assay: binding. The settings on record: crystals with Mn2+, UDP-GalNAc-F and glycopeptide (CST1.4 or Muc5AC series), pH 9.5; active site, UDP coordinates Mn2+A; added as UDP-GalNAc-F, only UDP modelled.

T1 sequence (A0A125YMZ8 entry or part of it): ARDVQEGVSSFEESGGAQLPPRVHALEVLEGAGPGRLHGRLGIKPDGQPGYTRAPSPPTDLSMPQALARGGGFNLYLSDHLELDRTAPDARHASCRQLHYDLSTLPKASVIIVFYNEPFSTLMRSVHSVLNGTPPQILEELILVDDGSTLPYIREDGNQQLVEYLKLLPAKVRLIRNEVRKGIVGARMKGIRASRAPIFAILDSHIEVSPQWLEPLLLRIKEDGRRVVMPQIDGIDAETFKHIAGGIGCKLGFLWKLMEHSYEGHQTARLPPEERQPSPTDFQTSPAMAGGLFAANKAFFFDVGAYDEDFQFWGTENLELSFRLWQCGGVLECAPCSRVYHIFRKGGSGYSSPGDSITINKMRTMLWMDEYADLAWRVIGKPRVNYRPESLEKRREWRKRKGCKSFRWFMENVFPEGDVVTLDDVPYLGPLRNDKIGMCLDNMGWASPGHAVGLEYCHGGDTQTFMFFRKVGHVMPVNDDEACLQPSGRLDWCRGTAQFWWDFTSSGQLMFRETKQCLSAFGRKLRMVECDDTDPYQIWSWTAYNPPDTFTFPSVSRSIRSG

As for `O=c1ccn([C@@H]2O[C@H](COP(=O)(O)OP(=O)(O)O)[C@@H](O)[C@H]2O)c(=O)[nH]1` [UDP], the X-ray crystal structure result is “We modeled UDP into the active site but did not include GalNAc-F”.
